Experimental data as given in patent EP0136745A2, “Benzoyl urea derivatives having anti-tumor activity” (DUPHAR INTERNATIONAL RESEARCH B.V, priority 1983, dated 1985).

System: B16 melanoma cells
Experiment: Sensitivity of B16 melanoma cells, in vitro cell growth inhibition (Coulter Counter cell count)
Assay type: cell-based
Conditions: Mus musculus, dosage of 500 /ug/ml, aqueous suspension, incubation 20 hours at 37°C, cells counted 48 hours after beginning of incubation, inhibition of cell growth with respect to control
Protocol: The anti-tumor activity was tested in an in vitro test. In this test the sensitivity of B16 melanoma cells to the new compounds according to the invention was determined.
B16 melanoma cells grow as a "monolayer". The doubling time of said cells in a cell culture is 12-16 hours.
On day O a quantity of 5 x 10^4 B 16 melanoma cells is provided in each cell culture dish.
On day 1 the compounds to be tested are vortexed in the presence of glass-beads. The compound to be tested is then addei to the dishes comprising melanoma cells in the desired quantity. Incubation takes place in a CO2--incubator at 37°C for 20 hours. The incubation is terminated by removing the culture medium with therein the compound to be tested, after which the cells are washed twice and fresh medium is added.
Forty-eight hours after the beginninq of the incubation the quantity of cells in each dish is measured by means of a microcell Coulter Counter. The results thus obtained are expressed by indicating the activity cf the compounds as 1+, 2+, 3+, 4+ or 5+, which has the following meaning: • 1+ : cel growth is inhibited 1- 20% with respect to control. • 2+ : cel growth is inhibited 20- 40% with respect to control. • 3+ : cel growth is inhibited 40- 60% with respect to control. • 4+ : cel growth is inhibited 60- 80% with respect to control. • 5+ : cel growth is inhibited 80-100% with respect to control.
Various compounds according to the invention were tested in the above-described manner in a dosage of 500 /ug/ml in the form of an aqueous suspension.

Row | Compound | inhibition at 500 µg/mL [%]
1 | Cc1cc(Cl)ccc1NC(=O)NC(=O)c1c(OCc2ccccc2)cccc1OCc1ccccc1 [Compound 22] | 40 to 60
2 | CC(=O)Oc1cccc(Cl)c1C(=O)NC(=O)Nc1ccc(O)cc1 [Compound 40] | 60 to 80
3 | CCC(=O)Oc1cccc(Cl)c1C(=O)NC(=O)Nc1ccc(Cl)cc1 [Compound 8] | 60 to 80
4 | CC(=O)Oc1cccc(Cl)c1C(=O)NC(=O)Nc1ccc(O)c(C(C)=O)c1 [Compound 46] | 80 to 100
5 | O=C(NC(=O)c1c(Cl)ccc(O)c1Cl)Nc1ccc(C(F)(F)F)cc1 [Compound 4] | 80 to 100
6 | CC(=O)Oc1cccc(Cl)c1C(=O)NC(=O)Nc1ccc(C(=O)N2CCCCC2)cc1 [Compound 16] | 80 to 100
7 | CC(=O)Oc1ccc(C(=O)NC(=O)Nc2ccc(O)c(C(F)(F)F)c2)cc1Cl [Compound 56] | 40 to 60
8 | O=C(NC(=O)c1cc([N+](=O)[O-])ccc1O)Nc1ccc(Cl)cc1 [Compound 9] | 60 to 80
9 | O=C(NC(=O)c1cc(Cl)ccc1O)Nc1ccc([N+](=O)[O-])cc1Cl [Compound 20] | 40 to 60
10 | Cc1ccccc1C(=O)NC(=O)Nc1ccc(O)cc1 [Compound 36] | 60 to 80
11 | CC(=O)Oc1cc(OC(F)(F)F)ccc1NC(=O)NC(=O)c1ccccc1Cl [Compound 30] | 40 to 60
12 | CC(=O)Oc1cc(NC(=O)NC(=O)c2c(Cl)cccc2OC(C)=O)ccc1Cl [Compound 39] | 80 to 100
13 | O=C(NC(=O)c1c(O)cccc1O)Nc1ccc(Cl)cc1 [Compound 11] | 80 to 100
14 | O=C(NC(=O)c1ccccc1O)Nc1ccc([N+](=O)[O-])cc1Cl [Compound 10] | 60 to 80
15 | CC(=O)Oc1cc(Cl)ccc1NC(=O)NC(=O)c1c(F)cccc1F [Compound 24] | 80 to 100
16 | O=C(NC(=O)c1c(Cl)ccc(OCc2ccccc2)c1Cl)Nc1ccc(Cl)cc1 [Compound 3] | 40 to 60
17 | CNC(=O)Oc1ccccc1NC(=O)NC(=O)c1c(Cl)cccc1Cl [Compound 32] | 60 to 80
18 | O=C(NC(=O)c1ccccc1OCc1ccccc1)Nc1ccc(Cl)cc1 [Compound 54, 1-(2-benzyloxybenzoyl)-3-(4-chlorophenyl)urea] | 20 to 40
19 | CC(=O)Oc1ccc(NC(=O)NC(=O)c2cc(C(C)(C)C)c(O)c(C(C)(C)C)c2)cc1 [Compound 47] | 60 to 80

Row | Compound | inhibition at 500 µg/mL [%]
20 | CC(=O)Oc1cccc(Cl)c1C(=O)NC(=O)Nc1ccc(OC2CC(C)CCC2C(C)C)cc1 (stereo not drawn) [Compound 15] | 60 to 80
21 | CC(=O)Oc1cccc(Cl)c1C(=O)NC(=O)Nc1cc(Br)cc(Br)c1O [Compound 45, 1-(2-acetoxy-6-chlorobenzoyl)-3-(2-hydroxy-3,5-dibromophenyl)urea] | 80 to 100
22 | CC(C)(C)c1cc(NC(=O)NC(=O)c2ccccc2Cl)cc(C(C)(C)C)c1O [Compound 37] | 80 to 100
23 | CC(=O)Oc1cc(C(F)(F)F)ccc1NC(=O)NC(=O)c1c(F)cccc1F [Compound 25] | 80 to 100
24 | O=C(NC(=O)c1cc(Cl)c(O)c(Cl)c1)Nc1ccc(Cl)cc1 [Compound 18] | 60 to 80
25 | O=C(NC(=O)c1c(F)cccc1F)Nc1ccc(OC(=O)Oc2ccc(Cl)cc2)cc1 [Compound 57] | 20 to 40
26 | O=C(NC(=O)c1c(O)cccc1Cl)Nc1ccc(Cl)c(O)c1 [Compound 38] | 60 to 80
27 | O=C(NC(=S)Nc1cccc(O)c1)c1ccc(Cl)cc1Cl [Compound 53] | 80 to 100
28 | CC(=O)Oc1cccc(Cl)c1C(=O)NC(=O)Nc1ccc(C(=O)c2ccccc2)cc1 [Compound 23] | 80 to 100
29 | CCOC(=O)COc1ccc(NC(=O)NC(=O)c2c(F)cccc2F)cc1C(F)(F)F [Compound 35] | 60 to 80
30 | CC(=O)Oc1c(Cl)cc(C(=O)NC(=O)Nc2ccc(Cl)cc2)cc1Cl [Compound 19] | 60 to 80
31 | O=C(NC(=O)c1cc(I)cc(I)c1O)Nc1ccc(Cl)cc1 [Compound 12] | 80 to 100
32 | CC(=O)Oc1cccc(Cl)c1C(=O)NC(=O)Nc1cc(C)ccc1O [Compound 41] | 80 to 100
33 | CC(=O)Oc1cc(C(F)(F)F)ccc1NC(=O)NC(=O)c1ccccc1Cl [Compound 29] | 40 to 60
34 | O=C(NC(=O)c1ccccc1Cl)Nc1ccc(OC(=O)Cc2ccc(Cl)cc2)c(Cl)c1 [Compound 34] | 40 to 60
35 | O=C(NC(=O)c1ccccc1OC(=O)c1ccccc1)Nc1ccc(Cl)cc1 [Compound 17] | 60 to 80
36 | O=C(NC(=O)c1c(Cl)cc(O)cc1Cl)Nc1ccc(Cl)c(Cl)c1 [Compound 21] | 60 to 80
37 | CSc1cccc(Cl)c1C(=S)NC(=S)Nc1ccc(Cl)cc1 [Compound 52] | 80 to 100
38 | CC(=O)Oc1cccc(Cl)c1C(=O)NC(=O)Nc1ccc(Cl)cc1 [Compound 7] | 80 to 100

Row | Compound | inhibition at 500 µg/mL [%]
39 | CC(=O)Oc1ccc(C(=O)NC(=O)Nc2ccc(O)cc2)cc1Cl [Compound 48] | 60 to 80
40 | O=C(NC(=O)c1c(F)cccc1F)Nc1cc(Cl)c(C(=O)c2ccc(Cl)cc2)c(Cl)c1 [Compound 55] | 40 to 60
41 | CC(=O)Oc1ccccc1NC(=S)NC(=O)c1ccccc1 [Compound 51] | 60 to 80
42 | O=C(NC(=O)c1ccccc1Cl)Nc1ccc(O)c(C(F)(F)F)c1 [Compound 27] | 40 to 60
43 | CC(=O)Oc1ccc(Cl)c(C(=O)NC(=O)Nc2ccc(Cl)cc2)c1Cl [Compound 2] | 60 to 80
44 | O=C(NC(=O)c1c(F)cccc1F)Nc1ccc(O)c(C(F)(F)F)c1 [Compound 26] | 80 to 100
45 | O=C(NC(=O)c1c(O)cccc1Cl)Nc1ccc(Cl)cc1 [Compound 6] | 60 to 80
46 | O=C(NC(=O)c1c(F)cccc1F)Nc1ccc(Oc2ccc(Cl)cc2)c(Cl)c1 [Compound 31] | 40 to 60
47 | O=C(NC(=O)c1c(Cl)cccc1Cl)Nc1cccc(OC(=O)Nc2ccccc2)c1 [Compound 33] | 80 to 100
48 | Cc1cc(Cl)ccc1NC(=O)NC(=O)c1c(O)cccc1O [Compound 13] | 60 to 80
49 | CC(=O)Oc1cccc(Cl)c1C(=O)NC(=O)Nc1ccc([N+](=O)[O-])cc1O [Compound 42] | 80 to 100
50 | CC(=O)Oc1ccccc1C(=O)NC(=O)Nc1cc(Cl)c(O)c(Cl)c1 [Compound 49] | 80 to 100
51 | CC(=O)Oc1ccc(Cl)c(C(=O)NC(=O)Nc2ccc(C(F)(F)F)cc2)c1Cl [Compound 5] | 80 to 100
52 | O=C(NC(=O)c1ccccc1Cl)Nc1ccc(O)cc1OC(F)(F)F [Compound 28] | 80 to 100
53 | CC(=O)Oc1cccc(Cl)c1C(=O)NC(=O)Nc1ccc(OC(F)(F)C(F)F)cc1 [Compound 14] | 80 to 100
54 | CCCCOC(=O)c1ccc(NC(=O)NC(=O)c2c(Cl)cccc2OC(C)=O)cc1O [Compound 44] | 60 to 80
55 | O=C(NC(=O)c1c(Cl)ccc(O)c1Cl)Nc1ccc(Cl)cc1 [Compound 1] | 80 to 100
56 | CC(=O)Oc1ccc(C)cc1NC(=O)NC(=O)c1c(Cl)cccc1OC(C)=O [Compound 43] | 80 to 100
57 | O=C(NC(=O)c1c(F)cccc1F)Nc1ccccc1S [Compound 50] | 80 to 100
